Target: T1, Est1E (uncultured bacterium, UniProt A0A345Z1H0)
T1 construct: 3 extra residues kept; no His tag; 29 kDa theoretical; purified by ion exchange and gel filtration
T1 sequence (A0A345Z1H0 1-248): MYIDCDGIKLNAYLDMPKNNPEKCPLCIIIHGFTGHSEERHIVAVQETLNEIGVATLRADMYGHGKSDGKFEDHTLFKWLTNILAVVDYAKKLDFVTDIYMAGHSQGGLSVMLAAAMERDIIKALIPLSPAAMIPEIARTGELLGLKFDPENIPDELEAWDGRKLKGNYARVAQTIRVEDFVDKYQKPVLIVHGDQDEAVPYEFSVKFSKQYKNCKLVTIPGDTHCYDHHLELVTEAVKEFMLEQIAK
Assay: absorbance at […] nm of released 2-chloro-4-nitrophenol
Format: biochemical
Details: about […] substrate in PBST pH […] °C, […] min (assay as described for culture supernatant; also run on purified enzyme)

Compound: COc1cc(/C=C/C(=O)Oc2ccc([N+](=O)[O-])cc2Cl)ccc1O [CNPF, 2-chloro-4-nitrophenyl ferulate]
- absorbance at 410 nm of released 2-chloro-4-nitrophenol: The activity of Est1E in the supernatant was measured by means of 2-chloro-4-nitrophenyl ferulate (CNPF)
